The supplement of paper PMC10307832

Legend:
Assay in all cases: relative viability (nuclei count vs DMSO), 5 days (fraction); higher = more cells survive
[1] = compound: CCC1=CN=CN=C1N2CCN(CC2)CC3=NC4=C(N3)C=C(C=C4)C(F)(F)F + CCNC(=O)c1noc(-c2cc(C(C)C)c(O)cc2O)c1-c1ccc(CN2CCOCC2)cc1 [Luminespib] (partner 0.01 µM)
Method in brief: (§1)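 Each reported value is a median over duplicate plates. It expresses relative viability: treated-well nuclei count divided by vehicle-well nuclei count. Lung cancer cell lines in 1536-well plates were dosed by pin tool a day after seeding, alone with one drug or with a fixed anchor-drug dose plus five library-drug doses (not always all listed) in √10 steps, and nuclei were counted after 5 days.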

[2] = compound: CCC1=CN=CN=C1N2CCN(CC2)CC3=NC4=C(N3)C=C(C=C4)C(F)(F)F + CS(=O)(=O)CCNCc1ccc(-c2ccc3ncnc(Nc4ccc(OCc5cccc(F)c5)c(Cl)c4)c3c2)o1 [Lapatinib] (partner 2 µM)
Method in brief: as §1

[3] = compound: CCC1=CN=CN=C1N2CCN(CC2)CC3=NC4=C(N3)C=C(C=C4)C(F)(F)F + NC(=O)Nc1cc(-c2cccc(F)c2)sc1C(=O)N[C@H]1CCCNC1 [AZD7762] (partner 0.2 µM)
Method in brief: as §1

Mirin + Pictilisib = compound: N=C1NC(=O)/C(=C/c2ccc(O)cc2)S1 [Mirin] + CS(=O)(=O)N1CCN(Cc2cc3nc(-c4cccc5[nH]ncc45)nc(N4CCOCC4)c3s2)CC1 [Pictilisib] (partner 1 µM)
Method in brief: as §1

Cell Line	relative viability ([1]; first compound 0.04 µM)	relative viability ([1]; first compound 0.1265 µM)	relative viability ([1]; first compound 0.4 µM)	relative viability ([1]; first compound 4 µM)	relative viability ([2]; first compound 0.04 µM)	relative viability ([2]; first compound 0.1265 µM)	relative viability ([2]; first compound 0.4 µM)	relative viability ([2]; first compound 4 µM)	relative viability ([3]; first compound 0.04 µM)	relative viability ([3]; first compound 0.1265 µM)	relative viability ([3]; first compound 0.4 µM)	relative viability ([3]; first compound 4 µM)	relative viability (Mirin + Pictilisib; first compound 0.25 µM)	relative viability (Mirin + Pictilisib; first compound 0.7906 µM)	relative viability (Mirin + Pictilisib; first compound 2.5 µM)	relative viability (Mirin + Pictilisib; first compound 7.906 µM)	relative viability (Mirin + Pictilisib; first compound 25 µM)	relative viability ([1]; first compound 1.265 µM)	relative viability ([2]; first compound 1.265 µM)	relative viability ([3]; first compound 1.265 µM)
NCI-H2405	0.684	0.704	0.657	0.794	1.04	1.17	1.11	1.2	0.772	0.735	0.674	0.901	0.465	0.51	0.401	0.307	0.317	–	–	–
HCC-44	1.02	1.01	1.03	1.07	0.932	0.956	0.975	0.85	1.04	0.946	0.977	0.986	0.7	0.819	0.602	0.541	0.474	0.88	1.05	1.13
HCC-78	–	–	–	–	0.458	0.363	0.726	0.463	0.564	0.559	0.668	0.631	0.203	0.2	0.205	0.207	0.215	–	0.548	0.525
COR-L23	0.717	0.629	0.641	0.545	0.979	0.914	0.74	0.92	–	–	–	–	0.8	0.721	0.854	0.738	0.687	0.654	0.781	–
NCI-H1993	0.852	0.802	0.836	0.816	0.777	0.842	0.69	0.747	0.747	0.822	0.726	0.678	0.748	0.698	0.893	0.818	0.782	0.772	0.8	0.783
NCI-H2228	0.131	0.132	0.131	0.175	0.949	1.11	0.79	1.06	–	–	–	–	0.397	0.396	0.37	0.356	0.346	0.144	1.14	–
NCI-H2342	0.645	0.756	0.619	0.494	–	–	–	–	0.441	0.389	0.467	0.419	–	–	–	–	–	0.52	–	0.397
SK-LU-1	0.205	0.203	0.213	0.213	0.924	0.855	0.926	0.902	–	–	–	–	0.742	0.555	0.588	0.464	0.328	0.178	–	–
NCI-H2023	0.7	0.594	0.706	0.626	0.716	0.765	0.749	0.763	–	–	–	–	0.252	0.258	0.19	0.29	0.214	0.72	0.527	–
LCLC-103H	0.948	0.98	0.999	0.721	–	–	–	–	0.776	0.774	0.794	0.865	0.63	0.532	0.536	0.714	0.739	0.886	–	0.684
NCI-H1563	0.539	0.545	0.529	0.531	0.903	0.908	0.984	1.36	–	–	–	–	0.619	0.618	0.651	0.662	0.538	0.478	0.715	–
NCI-H520	0.243	0.256	0.264	0.199	0.846	0.862	0.857	0.729	–	–	–	–	0.275	0.284	0.274	0.202	0.181	–	0.588	–
HCC-366	–	–	–	–	1.01	1.05	0.988	1.13	0.33	0.256	0.219	0.302	0.169	0.17	0.158	0.122	0.0892	–	–	0.226
NCI-H522	1.16	1.24	1.15	0.987	–	–	–	–	0.87	0.869	0.707	0.901	–	–	–	–	–	0.867	–	0.748
SW 900	0.165	0.194	0.158	0.195	–	–	–	–	0.552	0.571	0.48	0.702	–	–	–	–	–	0.177	–	–
NCI-H661	0.968	0.935	0.885	0.783	0.646	0.437	0.411	0.475	–	–	–	–	–	0.329	0.499	–	0.332	0.872	–	–
SK-MES-1	0.779	0.951	0.718	0.793	0.487	0.432	0.749	0.428	–	–	–	–	0.319	0.376	0.379	0.502	0.46	0.735	0.43	–
EBC-1	–	–	–	–	0.224	0.3	1.47	1.31	–	–	–	–	0.456	0.343	0.378	0.238	0.204	–	1.52	–
NCI-H1650	0.212	0.207	0.186	0.213	0.721	0.797	0.711	0.645	–	–	–	–	0.576	0.494	0.592	0.447	0.385	–	0.39	–
IA-LM	–	–	–	–	0.85	0.781	0.736	0.893	–	–	–	–	0.399	0.438	0.326	0.349	0.494	–	0.923	–
NCI-H1703	–	–	–	–	0.966	0.819	0.921	0.923	–	0.148	0.125	0.126	0.25	0.252	0.27	–	0.226	–	0.804	–
NCI-H441	0.387	0.345	0.315	0.396	–	–	–	–	1.29	1.15	1.03	1.21	0.531	0.521	0.528	0.37	0.362	0.358	–	1.15
